# Laboratory results as given in patent publication US10202339B2, “Therapeutic compounds and compositions” (AGIOS PHARMACEUTICALS, INC., priority 2012, dated 2019).
# Target: IDH2 R140Q (Homo sapiens (Human), UniProt P48735, R140Q)
# Test: IDH2 R140Q enzymatic cofactor depletion assay (diaphorase/resazurin)
# Type: biochemical
# Conditions: IDH2 R140Q enzyme, one hour preincubation with compound, one hour reaction; read-out: Enz R140Q
# Description: The reaction was terminated by the addition of a second enzyme, diaphorase, and a corresponding substrate, resazurin. Diaphorase reduces resazurin to the highly fluorescent resorufin with the concomitant oxidation of NADPH to NADP, both halting the IDH2 reaction by depleting the available cofactor pool and facilitating quantitation of the amount of cofactor remaining after a specific time period through quantitative production of an easily detected fluorophore.
# The compound was then incubated for one hour at room temperature with the enzyme; before starting the IDH2 reaction with the addition of 10 μl of substrate mix containing 50 μM NADPH and 6.3 mM α-KG in the buffer described above. After a further one hour of incubation at room temperature, the reaction was halted and the remaining NADPH measured through conversion of resazurin to resorufin by the addition of 25 μl Stop Mix (36 μg/ml diaphorase enzyme and 60 μM resazurin; in buffer). After one minute of incubation the plate was read on a plate reader at Ex544/Em590.
# IDH2 R140Q, sequence (P48735 40-452 R140Q): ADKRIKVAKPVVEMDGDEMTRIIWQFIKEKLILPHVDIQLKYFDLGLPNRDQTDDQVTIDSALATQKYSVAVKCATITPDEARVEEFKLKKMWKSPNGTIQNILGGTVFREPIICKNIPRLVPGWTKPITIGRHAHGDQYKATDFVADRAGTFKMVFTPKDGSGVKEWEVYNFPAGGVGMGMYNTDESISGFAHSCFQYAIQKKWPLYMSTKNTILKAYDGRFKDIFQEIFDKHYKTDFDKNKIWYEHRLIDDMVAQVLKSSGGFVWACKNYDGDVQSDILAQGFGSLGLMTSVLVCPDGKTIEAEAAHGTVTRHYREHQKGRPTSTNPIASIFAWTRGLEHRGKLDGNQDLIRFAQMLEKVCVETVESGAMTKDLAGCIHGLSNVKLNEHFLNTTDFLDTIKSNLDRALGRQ
row,SMILES,IC50
1,O=C(Nc1ccc(F)c(Cl)c1)Nc1cc(S(=O)(=O)Nc2ccccc2)ccc1-c1ccsc1 [Compound 19],1 to 10 µM
2,O=C(Nc1ccc(F)cc1)Nc1cc(S(=O)(=O)NCC2CC2)ccc1C1=CCOCC1 [Compound 153],1 to 10 µM
3,"O=C(Nc1cccc(C(F)(F)F)c1)Nc1cc(S(=O)(=O)NCC(F)(F)F)ccc1C1=CCOCC1 [Compound 157, 4-(3,6-dihydro-2H-pyran-4-yl)-N-(2,2,2-trifluoroethyl)-3-(3-(3-(trifluoromethyl)phenyl)ureido)benzene sulfonamide]",1 to 10 µM
4,O=C(Nc1cccc(C(F)(F)F)c1)Nc1cc(S(=O)(=O)Nc2ccccc2)ccc1-c1ccncc1 [Compound 60],1 to 10 µM
5,O=C(Nc1ccc(F)c(F)c1)Nc1cc(S(=O)(=O)Nc2ccccc2)ccc1-c1ccsc1 [Compound 20],1 to 10 µM
6,"O=C(Nc1cc(C(F)(F)F)ccn1)Nc1cc(S(=O)(=O)NCC(F)(F)F)ccc1C1CCCO1 (stereo not drawn) [Compound 174, 4-(tetrahydrofuran-2-yl)-N-(2,2,2-trifluoroethyl)-3-(3-(4-(trifluoromethyl)pyridin-2-yl)ureido)benzene sulfonamide]",1 to 10 µM
7,O=C(Nc1ncco1)Nc1cc(S(=O)(=O)Nc2ccccc2)ccc1-c1ccsc1 [Compound 23],1 to 10 µM
8,"O=C(Nc1cccc(C(F)(F)F)c1)Nc1cc(S(=O)(=O)NCc2ccccc2)ccc1-c1ccsc1 [Compound 136, N-benzyl-4-(thiophen-3-yl)-3-(3-(3-(trifluoromethyl)phenyl)ureido)benzenesulfonamide]",0.1 to 1 µM
9,"O=C(Nc1cccc(C(F)(F)F)c1)Nc1cc(S(=O)(=O)NCC(F)(F)F)ccc1OCC1CC1 [Compound 175, 4-(cyclopropylmethoxy)-N-(2,2,2-trifluoroethyl)-3-(3-(3-(trifluoromethyl)phenyl)ureido)benzenesulfonamide]",0.1 to 1 µM
10,"Cc1ccc(F)c(NC(=O)Nc2cc(S(=O)(=O)Nc3ccccc3)ccc2-c2ccsc2)c1 [Compound 12, 3-(3-(2-fluoro-5-methylphenyl)ureido)-N-phenyl-4-(thiophen-3-yl)benzenesulfonamide]",0.1 to 1 µM
11,O=C(Nc1cccc(C(F)(F)F)c1)Nc1cc(S(=O)(=O)NC2CC2)cnc1-n1ccnc1 [Compound 355],0.1 to 1 µM
12,"O=C(Nc1cccc(C(F)(F)F)c1)Nc1cc(S(=O)(=O)NCC2CCOCC2)ccc1-c1ccsc1 [Compound 133, N-((tetrahydro-2H-pyran-4-yl)methyl)-4-(thiophen-3-yl)-3-(3-(3-(trifluoromethyl)phenyl)ureido)benzene sulfonamide]",0.1 to 1 µM
13,"O=C(Nc1cccc(C(F)(F)F)c1)Nc1cc(S(=O)(=O)NC2COC2)ccc1OCC1CC1 [Compound 183, 4-(cyclopropylmethoxy)-N-(oxetan-3-yl)-3-(3-(3-(trifluoromethyl)phenyl)ureido)benzenesulfonamide]",0.1 to 1 µM
14,"COCCCNS(=O)(=O)c1ccc(-c2ccsc2)c(NC(=O)Nc2cccc(C(F)(F)F)c2)c1 [Compound 122, N-(3-methoxypropyl)-4-(thiophen-3-yl)-3-(3-(3-(trifluoromethyl)phenyl)ureido)benzenesulfonamide]",0.1 to 1 µM
15,"CC1CCCC(NC(=O)Nc2cc(S(=O)(=O)NCC(F)(F)F)ccc2-c2ccccc2)C1 (stereo not drawn) [Compound 71, 2-(3-(3-methylcyclohexyl)ureido)-N-(2,2,2-trifluoroethyl)-[1,1′-biphenyl]-4-sulfonamide]",0.1 to 1 µM
16,O=C(Nc1cccc(C(F)(F)F)c1)Nc1cc(S(=O)(=O)Nc2cccnc2)ccc1-c1ccsc1 [Compound 150],1 to 10 µM
17,"O=C(Nc1cccc(C(F)(F)F)c1)Nc1cc(S(=O)(=O)NCC2CCCC2)ccc1-c1ccsc1 [Compound 129, N-(cyclopentylmethyl)-4-(thiophen-3-yl)-3-(3-(3-(trifluoromethyl)phenyl)ureido)benzenesulfonamide]",0.1 to 1 µM
18,"O=C(Nc1cccc(C(F)(F)F)c1)Nc1cc(S(=O)(=O)NCC(F)(F)F)ccc1OC1CCOCC1 [Compound 178, 4-((tetrahydro-2H-pyran-4-yl)oxy)-N-(2,2,2-trifluoroethyl)-3-(3-(3-(trifluoromethyl)phenyl)ureido)benzenesulfonamide]",0.1 to 1 µM
19,"O=C(Nc1cccc(C(F)(F)F)c1)Nc1cc(S(=O)(=O)NC2CC2)ccc1-c1ccccc1 [Compound 36, N-cyclopropyl-2-(3-(3-(trifluoromethyl)phenyl)ureido)-[1,1′-biphenyl]-4-sulfonamide]",0.1 to 1 µM
20,CC(C)N(C)c1ccc(S(=O)(=O)Nc2ccccc2)cc1NC(=O)Nc1cccc(C(F)(F)F)c1 [Compound 347],1 to 10 µM
21,O=C(Nc1ccccn1)Nc1cc(S(=O)(=O)Nc2ccccc2)ccc1-c1ccsc1 [Compound 22],1 to 10 µM
22,Cc1cc(C)cc(NC(=O)Nc2cc(S(=O)(=O)Nc3ccccc3)ccc2-c2ccsc2)c1 [Compound 16],1 to 10 µM
23,O=C(Nc1cc(C(F)(F)F)ccn1)Nc1cc(S(=O)(=O)NCC(F)(F)F)ccc1-c1cccnc1 [Compound 65],1 to 10 µM
24,"O=C(Nc1ccc(F)c(Cl)c1)Nc1cc(S(=O)(=O)NCC2CC2)ccc1C1=CCOCC1 [Compound 155, 3-(3-(3-chloro-4-fluorophenyl)ureido)-N-(cyclopropylmethyl)-4-(3,6-dihydro-2H-pyran-4-yl)benzene sulfonamide]",0.1 to 1 µM
25,"O=C(Nc1cccc(C(F)(F)F)c1)Nc1cc(S(=O)(=O)Nc2ccccc2)ccc1Nc1ccccc1 [Compound 340, N-phenyl-4-(phenylamino)-3-(3-(3-(trifluoromethyl)phenyl)ureido)benzenesulfonamide]",1 to 10 µM

# The next lines start with the values.
row,IC50,SMILES
1,0.1 to 1 µM,"O=C(Nc1cccc(C(F)(F)F)c1)Nc1cc(S(=O)(=O)Nc2ccccc2)ccc1-n1ccnc1 [Compound 342, 4-(1H-imidazol-1-yl)-N-phenyl-3-(3-(3-(trifluoromethyl)phenyl)ureido)benzenesulfonamide]"
2,0.1 to 1 µM,"O=C(Nc1cccc(C(F)(F)F)c1)Nc1cc(S(=O)(=O)Nc2ccccc2)ccc1C1=CCOCC1 [Compound 161, 4-(3,6-dihydro-2H-pyran-4-yl)-N-phenyl-3-(3-(3-(trifluoromethyl)phenyl)ureido)benzene sulfonamide]"
3,0.1 to 1 µM,"O=C(Nc1ccc(F)c(C(F)(F)F)c1)Nc1cc(S(=O)(=O)NCC2CC2)ccc1C1=CCOCC1 [Compound 156, N-(cyclopropylmethyl)-4-(3,6-dihydro-2H-pyran-4-yl)-3-(3-(4-fluoro-3-(trifluoromethyl)phenyl)ureido)benzenesulfonamide]"
4,0.1 to 1 µM,"O=C(Nc1cccc(C(F)(F)F)c1)Nc1cc(S(=O)(=O)NCC(F)(F)F)ccc1-c1ccsc1 [Compound 130, 4-(thiophen-3-yl)-N-(2,2,2-trifluoroethyl)-3-(3-(3-(trifluoromethyl)phenyl)ureido)benzenesulfonamide]"
5,0.1 to 1 µM,"O=C(Nc1ccccc1)Nc1cc(S(=O)(=O)Nc2ccccc2)ccc1-c1ccsc1 [Compound 1, N-phenyl-3-(3-phenylureido)-4-(thiophen-3-yl)benzenesulfonamide]"
6,0.1 to 1 µM,"CCc1ccccc1NC(=O)Nc1cc(S(=O)(=O)Nc2ccccc2)ccc1-c1ccsc1 [Compound 4, 3-(3-(2-ethylphenyl)ureido)-N-phenyl-4-(thiophen-3-yl)benzenesulfonamide]"
7,0.1 to 1 µM,"C#Cc1ccc(S(=O)(=O)NCC(F)(F)F)cc1NC(=O)Nc1cccc(C(F)(F)F)c1 [Compound 338, 4-ethynyl-N-(2,2,2-trifluoroethyl)-3-(3-(3-(trifluoromethyl)phenyl)ureido)benzenesulfonamide]"
8,0.1 to 1 µM,"O=C(Nc1cc(F)cc(F)c1)Nc1cc(S(=O)(=O)NCC(F)(F)F)ccc1-c1ccccc1 [Compound 89, 2-(3-(3,5-difluorophenyl)ureido)-N-(2,2,2-trifluoroethyl)-[1,1′-biphenyl]-4-sulfonamide]"
9,0.1 to 1 µM,"Cc1cccc(-c2ccc(S(=O)(=O)NC3CCOCC3)cc2NC(=O)Nc2cccc(C(F)(F)F)c2)c1 [Compound 47, 3′-methyl-N-(tetrahydro-2H-pyran-4-yl)-2-(3-(3-(trifluoromethyl)phenyl)ureido)-[1,1′-biphenyl]-4-sulfonamide]"
10,0.1 to 1 µM,"O=C(Nc1cc(F)ccc1Cl)Nc1cc(S(=O)(=O)NCC(F)(F)F)ccc1-c1ccccc1 [Compound 90, 2-(3-(2-chloro-5-fluorophenyl)ureido)-N-(2,2,2-trifluoroethyl)-[1,1′-biphenyl]-4-sulfonamide]"
11,0.1 to 1 µM,"O=C(Nc1cc(S(=O)(=O)NCC(F)(F)F)ccc1-c1ccccc1)Nc1ccncc1C(F)(F)F [Compound 78, N-(2,2,2-trifluoroethyl)-2-(3-(3-(trifluoromethyl)pyridin-4-yl)ureido)-[1,1′-biphenyl]-4-sulfonamide]"
12,0.1 to 1 µM,"O=C(Nc1nccs1)Nc1cc(S(=O)(=O)NCC(F)(F)F)ccc1-c1ccccc1 [Compound 70, 2-(3-(thiazol-2-yl)ureido)-N-(2,2,2-trifluoroethyl)-[1,1′-biphenyl]-4-sulfonamide]"
13,0.1 to 1 µM,"Cc1nc(NC(=O)Nc2cc(S(=O)(=O)NCC(F)(F)F)ccc2-c2ccccc2)sc1Cl [Compound 101, 2-(3-(5-chloro-4-methylthiazol-2-yl)ureido)-N-(2,2,2-trifluoroethyl)-[1,1′-biphenyl]-4-sulfonamide]"
14,< 0.1 µM,"CCOc1ccc(S(=O)(=O)NCC(F)(F)F)cc1NC(=O)Nc1cccc(C(F)(F)F)c1 [Compound 177, 4-ethoxy-N-(2,2,2-trifluoroethyl)-3-(3-(3-(trifluoromethyl)phenyl)ureido)benzenesulfonamide]"
